Laboratory results published in ChEMBL document CHEMBL1697781, “Assessment of the health effects of chemicals in humans: II. Construction of an adverse effects database for QSAR modeling” (Curr Drug Discov Technol, 2004).

Tested on: Hepatotoxicity
Assay: FDA HLAED, liver enzyme composite activity
Conditions: human

Row | SMILES | Composite Activity - Active | Composite Activity - Marginal | Composite Activity - Active (Liver) | Composite Activity - Marginal (Liver)
1 | CC(=O)O.C[C@H]1C[C@@H]2[C@H]([C@@H](O)C[C@@]3(C)[C@H]2CC[C@]3(O)C(=O)CO)[C@@]2(C)C=CC(=O)C=C12 | 0 | 0 |  | 
2 | FC(F)OC(F)(F)C(F)Cl (stereo not drawn) | 0 | 0 |  | 
3 | N[C@@H](Cc1ccc(N(CCCl)CCCl)cc1)C(=O)O | 0 | 0 |  | 
4 | NC12CC3CC(CC(C3)C1)C2 [AMANTADINE] | 0 | 0 |  | 
5 | NCCCCCC(=O)O [AMINOCAPROIC ACID] | 0 | 0 |  | 
6 | CN(C)CCC=C1c2ccccc2CCc2ccccc21 [AMITRIPTYLINE] | 0 | 0 |  | 
7 | C[C@@H]1[C@H](O)[C@@H](C)/C=C/C=C/C=C/C=C/C=C/C=C/C=C/[C@H](O[C@@H]2O[C@H](C)[C@@H](O)[C@H](N)[C@@H]2O)C[C@@H]2O[C@](O)(C[C@@H](O)C[C@@H](O)[C@H](O)CC[C@@H](O)C[C@@H](O)CC(=O)O[C@H]1C)C[C@H](O)[C@H]2C(=O)O [AMPHOTERICIN B] | 0 | 0 |  | 
8 | CC(=O)Oc1ccccc1C(=O)O [ASPIRIN] | 0 | 0 |  | 
9 | CN1[C@@H]2CC[C@H]1C[C@@H](OC(c1ccccc1)c1ccccc1)C2 [BENZTROPINE] | 0 | 0 |  | 
10 | CC(=O)OCC(=O)[C@@]1(O)[C@@H](C)C[C@H]2[C@@H]3CCC4=CC(=O)C=C[C@]4(C)[C@@]3(F)[C@@H](O)C[C@@]21C [BETAMETHASONE ACETATE] | 0 | 0 |  | 
11 | CC(=O)OCC(=O)[C@@]1(OC(=O)C(C)C)[C@@H](C)C[C@H]2[C@@H]3CCC4=CC(=O)C=C[C@]4(C)[C@@]3(F)[C@@H](O)C[C@@]21C [BETAMETHASONE ACIBUTATE] | 0 | 0 |  | 
12 | C[C@H]1C[C@H]2[C@@H]3CCC4=CC(=O)C=C[C@]4(C)[C@@]3(F)[C@@H](O)C[C@]2(C)[C@@]1(OC(=O)c1ccccc1)C(=O)CO [BETAMETHASONE BENZOATE] | 0 | 0 |  | 
13 | CCCC(=O)O[C@]1(C(=O)COC(=O)CC)[C@@H](C)C[C@H]2[C@@H]3CCC4=CC(=O)C=C[C@]4(C)[C@@]3(F)[C@@H](O)C[C@@]21C [BETAMETHASONE BUTYRATE PROPIONATE] | 0 | 0 |  | 
14 | CCC(=O)OCC(=O)[C@@]1(OC(=O)CC)[C@@H](C)C[C@H]2[C@@H]3CCC4=CC(=O)C=C[C@]4(C)[C@@]3(F)[C@@H](O)C[C@@]21C [BETAMETHASONE DIPROPIONATE] | 0 | 0 |  | 
15 | CCCCC(=O)O[C@]1(C(=O)CO)[C@@H](C)C[C@H]2[C@@H]3CCC4=CC(=O)C=C[C@]4(C)[C@@]3(F)[C@@H](O)C[C@@]21C [BETAMETHASONE VALERATE] | 0 | 0 |  | 
16 | C[C@H]1C[C@H]2[C@@H]3CCC4=CC(=O)C=C[C@]4(C)[C@@]3(F)[C@@H](O)C[C@]2(C)[C@@]1(O)C(=O)CO [BETAMETHASONE] | 0 | 0 |  | 
17 | CS(=O)(=O)OCCCCOS(C)(=O)=O [BUSULFAN] | 0 | 0 |  | 
18 | Cc1nnc(SCC2=C(C(=O)O)N3C(=O)[C@@H](NC(=O)Cn4cnnn4)[C@H]3SC2)s1 [CEFAZOLIN] | 0 | 0 |  | 
19 | CC1=C(C(=O)O)N2C(=O)[C@@H](NC(=O)[C@H](N)c3ccccc3)[C@H]2SC1 [CEPHALEXIN ANHYDROUS] |  |  | 0 | 0
20 | CN1C(=O)CCS(=O)(=O)C1c1ccc(Cl)cc1 (stereo not drawn) [CHLORMEZANONE] | 0 | 0 |  | 
21 | O=C(O)C1N=C(c2ccccc2)c2cc(Cl)ccc2NC1=O (stereo not drawn) [CLORAZEPIC ACID] | 0 | 0 |  | 
22 | CN(C)CCC=C1c2ccccc2C=Cc2ccccc21 [CYCLOBENZAPRINE] |  |  | 0 | 0
23 | O=C1CN(/N=C/c2ccc(-c3ccc([N+](=O)[O-])cc3)o2)C(O)=N1 [DANTROLENE] | 0 | 0 |  | 
24 | CC(=O)OCC(=O)[C@@]1(OC(=O)c2ccco2)[C@H](C)C[C@H]2[C@@H]3CCC4=CC(=O)C=C[C@]4(C)[C@@]3(F)[C@@H](O)C[C@@]21C [DEXAMETHASONE ACEFURATE] | 0 | 0 |  | 
25 | CC(=O)OCC(=O)[C@@]1(O)[C@H](C)C[C@H]2[C@@H]3CCC4=CC(=O)C=C[C@]4(C)[C@@]3(F)[C@@H](O)C[C@@]21C [DEXAMETHASONE ACETATE] | 0 | 0 |  | 
26 | CCC(=O)OCC(=O)[C@@]1(OC(=O)CC)[C@H](C)C[C@H]2[C@@H]3CCC4=CC(=O)C=C[C@]4(C)[C@@]3(F)[C@@H](O)C[C@@]21C [DEXAMETHASONE DIPROPIONATE] | 0 | 0 |  | 
27 | CCCCC(=O)O[C@]1(C(=O)CO)[C@H](C)C[C@H]2[C@@H]3CCC4=CC(=O)C=C[C@]4(C)[C@@]3(F)[C@@H](O)C[C@@]21C [DEXAMETHASONE VALARATE] | 0 | 0 |  | 

Row | SMILES | Composite Activity - Active | Composite Activity - Marginal | Composite Activity - Active (Liver) | Composite Activity - Marginal (Liver)
28 | C[C@@H]1C[C@H]2[C@@H]3CCC4=CC(=O)C=C[C@]4(C)[C@@]3(F)[C@@H](O)C[C@]2(C)[C@@]1(O)C(=O)CO [DEXAMETHASONE] | 0 | 0 |  | 
29 | CN1C(=O)CN=C(c2ccccc2)c2cc(Cl)ccc21 [DIAZEPAM] |  |  | 0 | 0
30 | CC(C)N(CCC(C(N)=O)(c1ccccc1)c1ccccn1)C(C)C (stereo not drawn) [DISOPYRAMIDE] | 0 | 0 |  | 
31 | COc1cccc2c1C(=O)c1c(O)c3c(c(O)c1C2=O)C[C@@](O)(C(=O)CO)C[C@@H]3O[C@H]1C[C@H](N)[C@H](O)[C@H](C)O1 [DOXORUBICIN] | 0 | 0 |  | 
32 | CC[C@@H](CO)NCCN[C@@H](CC)CO [ETHAMBUTOL] | 0 | 0 |  | 
33 | CCc1cc(C(N)=S)ccn1 [ETHIONAMIDE] |  |  | 0 | 0
34 | CCNC(C)Cc1cccc(C(F)(F)F)c1 (stereo not drawn) [FENFLURAMINE] | 0 | 0 |  | 
35 | O=c1[nH]c(=O)n([C@H]2C[C@H](O)[C@@H](CO)O2)cc1F [FLOXURIDINE] | 0 | 0 |  | 
36 | Nc1nc(=O)[nH]cc1F [FLUCYTOSINE] | 0 | 0 |  | 
37 | CCCCCCCCCC(=O)OCCN1CCN(CCCN2c3ccccc3Sc3ccc(C(F)(F)F)cc32)CC1 [FLUPHENAZINE DECANOATE] | 0 | 0 |  | 
38 | CCCCCCC(=O)OCCN1CCN(CCCN2c3ccccc3Sc3ccc(C(F)(F)F)cc32)CC1 [FLUPHENAZINE ENANTHATE] | 0 | 0 |  | 
39 | OCCN1CCN(CCCN2c3ccccc3Sc3ccc(C(F)(F)F)cc32)CC1 [FLUPHENAZINE] | 0 | 0 |  | 
40 | O=C(CCCN1CCC(O)(c2ccc(Cl)cc2)CC1)c1ccc(F)cc1 [HALOPERIDOL] | 0 | 0 |  | 
41 | NS(=O)(=O)c1cc2c(cc1Cl)NCNS2(=O)=O [HYDROCHLOROTHIAZIDE] | 0 | 0 |  | 
42 | NC(=O)NO [HYDROXYUREA] | 0 | 0 |  | 
43 | OCCOCCN1CCN(C(c2ccccc2)c2ccc(Cl)cc2)CC1 (stereo not drawn) [HYDROXYZINE] | 0 | 0 |  | 
44 | COC(=O)Nc1nc2ccc(C(=O)c3ccccc3)cc2[nH]1 [MEBENDAZOLE] | 0 | 0 |  | 
45 | CC(=O)O[C@]1(C(C)=O)CC[C@H]2[C@@H]3C[C@H](C)C4=CC(=O)CC[C@]4(C)[C@H]3CC[C@@]21C [MEDROXYPROGESTERONE ACETATE] | 0 | 0 |  | 
46 | CC(=O)O[C@]1(C(C)=O)CC[C@H]2[C@@H]3C=C(C)C4=CC(=O)CC[C@]4(C)[C@H]3CC[C@@]21C [MEGESTROL ACETATE] | 0 | 0 |  | 
47 | C#C[C@]1(O)CC[C@H]2[C@@H]3CCc4cc(OC)ccc4[C@H]3CC[C@@]21C [MESTRANOL] | 0 | 0 |  | 
48 | C=CCC1(C(C)C#CCC)C(=O)N=C(O)N(C)C1=O (stereo not drawn) [METHOHEXITAL] | 0 | 0 |  | 
49 | C[C@](N)(Cc1ccc(O)c(O)c1)C(=O)O [METHYLDOPA] | 0 | 0 |  | 
50 | C[C@H]1C[C@@H]2[C@H]([C@@H](O)C[C@@]3(C)[C@H]2CC[C@]3(O)C(=O)COC(=O)CCCCCCC(=O)N(C)CCS(=O)(=O)O)[C@@]2(C)C=CC(=O)C=C12 [METHYLPREDNISOLONE 21-SULEPTANIC ACID ESTER] | 0 | 0 |  | 
51 | CCC(=O)O[C@]1(C(=O)COC(C)=O)CC[C@H]2[C@@H]3C[C@H](C)C4=CC(=O)C=C[C@]4(C)[C@H]3[C@@H](O)C[C@@]21C [METHYLPREDNISOLONE ACEPONATE] | 0 | 0 |  | 
52 | C[C@H]1C[C@@H]2[C@H]([C@@H](O)C[C@@]3(C)[C@H]2CC[C@]3(O)C(=O)COC(=O)CCC(=O)O)[C@@]2(C)C=CC(=O)C=C12 [METHYLPREDNISOLONE HEMISUCCINATE] | 0 | 0 |  | 
53 | C[C@H]1C[C@@H]2[C@H]([C@@H](O)C[C@@]3(C)[C@H]2CC[C@]3(O)C(=O)CO)[C@@]2(C)C=CC(=O)C=C12 [METHYLPREDNISOLONE] | 0 | 0 |  | 
54 | CC(C)(S)[C@@H](N)C(=O)O [PENICILLAMINE] | 0 | 0 |  | 
